Data published in paper PMC6380545, “Myoinhibitory peptide signaling modulates aversive gustatory learning in Caenorhabditis elegans” (PLoS Genetics, 2019).
“And” between values parts separate entries of the source, which are not always exact repeats. Identical values can stand only once. Starred links: 1 amine or outer side, 2 acyl side, 3 side chain; linkers in the order of their positions; H or OH if unused. Positions of bridges follow the written chain, without caps; N, C: chain ends. Non-standard residues stand in square brackets, D forms with d. Residues, ends and D or L forms follow the SMILES beside them. Chains are numbered I, II in the order given. No end group written: not given here. Actinocin(9to1) = Cc1c2oc3c(C)ccc(C(=O)[*:1])c3nc-2c(C(=O)[*:2])c(N)c1=O; NMeV = CN[C@H](C(=O)O)C(C)C; Sar = CNCC(=O)O

Key:
C. elegans [1] = assay: Salt avoidance learning (taste associative learning, 6 h conditioning with NaCl without food); type: in vivo; settings: wild-type, blocker in conditioning plates, cycloheximide 300 μg/mL, actinomycin D 50 μg/mL, 100 mM NaCl without food
Description: We next explored the behavior of sprr-2 mutants in a second established type of gustatory associative learning that depends on food availability and external salt concentration, generally referred to as taste associative learning. […] In contrast, they are averted by NaCl concentrations at which they were starved, a behavior that is called salt avoidance learning (Fig 5A, see Methods). To test taste associative learning of sprr-2 mutants, we fed or starved animals, respectively, for six hours on conditioning plates with 25 mM NaCl (low salt) or 100 mM NaCl (high salt). […] This salt avoidance learning defect could be rescued by reintroducing wild-type copies of sprr-2 under control of its endogenous promoter (Fig 5C). […]
(A) Overview of taste associative learning assays. […] The CI is calculated from the number of worms that migrated toward the lower and upper parts of the gradient. […]
Worms were washed off the cultivation plates with chemotaxis buffer (25 mM KH2PO4/K2HPO4 pH 6.6, 1 mM MgSO4, 1 mM CaCl2, 50 mM NaCl) and transferred to unseeded (salt avoidance learning) or seeded NGM conditioning plates with 100 mM NaCl. […] 30 to 150 worms were placed at the origin and allowed to move freely for 45 minutes after which the CI was calculated as N(higher)—N(lower) / N(all)—N(origin) where N(higher) or N(lower) is the number of animals within a 2-cm radius from the centre of the blocks. […]

C. elegans [2] = assay: Taste associative learning, 6 h conditioning with NaCl in the presence of food; type: in vivo; settings: for CI: food (+): 6 hours conditioning on NGM plates with 100 mM NaCl in the presence of bacterial food, with the drug, gradient chemotaxis assay, each row is one single assay (replicate), Figure S5A; for learning behavior after conditioning with 100 mM NaCl in the presence of food: wild-type, blocker in conditioning plates, cycloheximide 300 μg/mL, actinomycin D 50 μg/mL, n ≥ 8
Experimental: (A) Overview of taste associative learning assays. Synchronized young adult C. elegans are conditioned for six hours on NaCl-containing plates with or without bacterial food. Salt chemotaxis behavior of worms is then tested on NaCl concentration gradients. The CI is calculated from the number of worms that migrated toward the lower and upper parts of the gradient. Worms chemotax to the salt concentrations at which they were fed, but avoid salt concentrations at which they were starved. […] (C) Expression of sprr-2 under its promoter sequence [sprr-2p::sprr-2] rescues the salt avoidance learning defect of sprr-2 mutants. (D) Expression of mip-1 under control of its endogenous promoter sequence [mip-1p::mip-1] rescues the salt avoidance learning defect of mip-1 mutants. (E) A mip-1; sprr-2 double mutant has no additive learning defect. (F) Blocking translation (cycloheximide) or transcription (actinomycin D) during conditioning impairs salt avoidance learning in wild-type animals. (G) Salt avoidance learning of mutants for transcription factors and regulators linked to learning and memory. […] For (B-H), boxplots indicate 25th (lower boundary), 50th (line), and 75th (upper boundary) percentiles. Whiskers show minimum and maximum values. Individual CIs, blue dots. Outliers, black dots. Statistical comparisons by one-way ANOVA and Tukey post-hoc test (n ≥ 6). *p<0.05; **p<0.005; ***p<0.001; n.s., not significant.
Worms were washed off the cultivation plates with chemotaxis buffer (25 mM KH2PO4/K2HPO4 pH 6.6, 1 mM MgSO4, 1 mM CaCl2, 50 mM NaCl) and transferred to unseeded (salt avoidance learning) or seeded NGM conditioning plates with 100 mM NaCl. After 6 hours, animals were washed off and rinsed once with chemotaxis buffer before testing chemotaxis towards NaCl on salt concentration gradients. Salt concentration gradients consisted of a thin layer of 50 mM NaCl 2% agar solution in chemotaxis buffer (background agar, 10 mL was poured into 8.5 cm diameter plates). Additionally, 2% agar in chemotaxis buffer solutions supplemented without 0 mM (lower side) or with 150 mM NaCl (higher side) were prepared by pouring 10 mL agar solution into 35 mm diameter plates. Cylindrical blocks with the diameter of a 15 mL falcon tube were excised from either solution and applied on the background agar 3 cm off centre in opposite directions. Salt concentration gradients were subsequently placed at 20°C for 18 hours before removing the agar chunks prior to use. 30 to 150 worms were placed at the origin and allowed to move freely for 45 minutes after which the CI was calculated as N(higher)—N(lower) / N(all)—N(origin) where N(higher) or N(lower) is the number of animals within a 2-cm radius from the centre of the blocks. Animals within a 1-cm radius from the origin were excluded from the assay. […]

SPRR-2 = molecular target: T1, SPRR-2 (Caenorhabditis elegans, UniProt Q93704); assay: Ca2+ luminescence (aequorin) GPCR activation assay, CHO cells expressing SPRR-2; type: cell-based, C. elegans; settings: CHO cells expressing SPRR-2, Gα16 and aequorin; 0.1 nM to 100 μM; n ≥ 4; read-out: EC50 values (95% CI) for activation of SPRR-2
T1 construct: host or cells: CHO-WTA11 cells (CHO stably expressing aequorin and Galpha16), transiently transfected with sprr-2/pcDNA3.1
T1 sequence (Q93704 1-451): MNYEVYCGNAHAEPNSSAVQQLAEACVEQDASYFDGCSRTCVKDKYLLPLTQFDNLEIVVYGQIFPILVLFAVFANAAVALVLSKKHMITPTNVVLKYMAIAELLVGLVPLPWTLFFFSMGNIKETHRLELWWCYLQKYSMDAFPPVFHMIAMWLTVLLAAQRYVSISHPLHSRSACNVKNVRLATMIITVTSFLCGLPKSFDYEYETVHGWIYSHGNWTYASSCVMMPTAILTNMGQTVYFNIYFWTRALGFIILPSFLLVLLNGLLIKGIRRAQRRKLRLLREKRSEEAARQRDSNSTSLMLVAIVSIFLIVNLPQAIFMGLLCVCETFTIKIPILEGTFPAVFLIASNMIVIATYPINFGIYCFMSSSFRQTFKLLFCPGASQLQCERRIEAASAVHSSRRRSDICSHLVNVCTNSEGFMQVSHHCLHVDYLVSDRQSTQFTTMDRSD
Description: Fig 2 MIP-1 neuropeptides activate the MIP receptor ortholog SPRR-2. (A) Ca^2+ luminescence assay for measuring GPCR activation. SPRR-2 is expressed in CHO cells that stably co-express the promiscuous Gα16 protein, which couples the receptor’s activation to the Ca^2+ pathway. Intracellular Ca^2+ levels are monitored by the luminescent Ca^2+ indicator aequorin. (B) Domain structure of the C. elegans NLP-38 peptide precursor, henceforward named MIP-1. Gene models predict that the mip-1 gene encodes two protein isoforms (Wormbase WS261), MIP-1A and MIP-1B, which yield five putative MIP-1 peptides. Predicted proprotein convertase sites are indicated in red. Residues belonging to the W-X5-8-Wamide motif, typical of protostomian MIPs, are indicated in brown. (C) MIP-1 peptides dose-dependently activate SPRR-2. Ca^2+responses of CHO cells expressing SPRR-2 are shown relative (%) to the highest value (100% activation) after normalization to the total Ca^2+ response. […] Error bars show SEM (n ≥ 4).
The C. elegans ortholog SPRR-2 of the insect MIP receptor is an orphan GPCR, meaning that its ligand(s) is unknown. To identify its ligand(s), we used a calcium (Ca^2+)-based reporter assay for GPCR activation wherein SPRR-2 is expressed in Chinese Hamster Ovary (CHO) cells (Fig 2A). We challenged these receptor-expressing cells with a synthetic library of ~350 C. elegans neuropeptides. […] These peptides (NLP-38-1 to 5) all have a C-terminal glycine residue (G) indicative of post-translational modification into an amide (-NH2) group in the mature peptides. In addition, these peptides display the C-terminal sequence W-X5-8-Wamide (Fig 2B), which is typical for MIP neuropeptides in other protostomian species. Because of its relationship to protostomian MIP neuropeptide precursors, we refer to the NLP-38 precursor from here onwards as "MIP-1".
The GPCR activation assay was performed as previously described. Briefly, CHO cells stably expressing the luminescent Ca^2+ indicator aequorin and the promiscuous Gα16 protein (CHO-WTA11 cells, PerkinElmer) were transiently transfected with sprr-2/pcDNA3.1, sprr-1/pcDNA3.1, sprr-3/pcDNA3.1, or empty pcDNA3.1 vector. […] After loading, the transfected cells were added at a density of 25,000 cells/well, and luminescence was measured for 30 s at a wavelength of 469 nm. After 30 s, 0.1% triton X-100 (Merck) was added to lyse the cells, resulting in a maximal Ca^2+ response that was measured for 10 s. […]
All behavioral experiments were performed at least in duplicate on at least two independent days. Total size number is indicated in figure legends by N. Statistical Significance was determined when p < 0.05 as indicated in the figure legends. […]

Cc1c2oc3c(C)ccc(C(=O)N[C@@H]4C(=O)N[C@H](C(C)C)C(=O)N5CCC[C@H]5C(=O)N(C)CC(=O)N(C)[C@@H](C(C)C)C(=O)O[C@@H]4C)c3nc-2c(C(=O)N[C@@H]2C(=O)N[C@H](C(C)C)C(=O)N3CCC[C@H]3C(=O)N(C)CC(=O)N(C)[C@@H](C(C)C)C(=O)O[C@@H]2C)c(N)c1=O [actinomycin D] (I: T[dV]P[Sar][NMeV] / II: T[dV]P[Sar][NMeV]; ester I:1-I:C, II:1-II:C; linker I:N-II:N via Actinocin(9to1))
avoidance of high salt concentrations experienced during starvation (salt avoidance learning) (C. elegans [1]): significantly weakened
CI (C. elegans [2]): 0.5595 and 0.6629 and 0.7488 and 0.5052 and 0.5581 and 0.5185
learning behavior after conditioning with 100 mM NaCl in the presence of food (C. elegans [2]): does not impair

C[C@@H]1C[C@@H]([C@H](O)CC2CC(=O)NC(=O)C2)C(=O)[C@@H](C)C1 [cycloheximide]
avoidance of high salt concentrations experienced during starvation (salt avoidance learning) (C. elegans [1]): significantly weakened
CI (C. elegans [2]): 0.19 and 0.26 and 0.65 and 0.48 and 0.38 and 0.54 and 0.7415 and 0.7427
learning behavior after conditioning with 100 mM NaCl in the presence of food (C. elegans [2]): does not impair

ASDDRVLGWNKAHGLW-NH2 [MIP-1-4]
EC50 (SPRR-2): 8.32 nM

SPAQWQRANGLW-NH2 [MIP-1-3]
EC50 (SPRR-2): 16.1 nM

TPQNWNKLNSLW-NH2 [MIP-1-2]
EC50 (SPRR-2): 14.2 nM

VLGWNKAHGLW-NH2 [MIP-1-1]
EC50 (SPRR-2): 7.5 nM
